# In patent US5114920A, “BU-3292T antibiotics” (priority 1988, dated 1992):
# Starred links: 1 amine or outer side, 2 acyl side, 3 side chain; linkers in the order of their positions; H or OH if unused. Positions of bridges follow the written chain, without caps; N, C: chain ends. Non-standard residues stand in square brackets, D forms with d. Residues, ends and D or L forms follow the SMILES beside them. Chains are numbered I, II in the order given. Actinocin(9to1) = Cc1c2oc3c(C)ccc(C(=O)[*:1])c3nc-2c(C(=O)[*:2])c(N)c1=O; NMeV = CN[C@H](C(=O)O)C(C)C; Sar = CNCC(=O)O
# Assays:
# [1] = system: Aspergillus fumigatus IAM 2530; test: Antimicrobial activity, serial two-fold agar dilution method; assay type: cell-based; details: Sabouraud dextrose agar
# Method: (§1) The antimicrobial activity of BU-3292T A and B was determined against aerobic and anaerobic bacteria and fungi by a serial two-fold agar dilution method. BU-3292T A and B are active against aerobic gram-positive bacteria, and weakly active against anaerobic gram-negative bacteria and fungi.
# [2] = system: Bacillus subtilis PCI-219; test: as above; assay type: cell-based; details: Nutrient agar
# Method: as §1
# [3] = system: Bacteroides fragilis A22693; test: as above; assay type: cell-based; details: GAM agar
# Method: as §1
# [4] = system: Candida albicans IAM 4888; test: as above; assay type: cell-based; details: Sabouraud dextrose agar
# Method: as §1
# [5] = system: Clostridium difficile A21675; test: as above; assay type: cell-based; details: GAM agar
# Method: as §1
# [6] = system: Cryptococcus neoformans IAM 4519; test: as above; assay type: cell-based; details: Sabouraud dextrose agar
# Method: as §1
# Escherichia coli NIHJ = test: as above; assay type: cell-based; details: Nutrient agar
# Method: as §1
# [7] = system: Fusarium moniliforme A2284; test: as above; assay type: cell-based; details: Sabouraud dextrose agar
# Method: as §1
# [8] = system: Klebsiella pneumoniae D11; test: as above; assay type: cell-based; details: Nutrient agar
# Method: as §1
# Micrococcus luteus 1001 = test: as above; assay type: cell-based; details: Nutrient agar
# Method: as §1
# Mucor spinosus IFO 5317 = test: as above; assay type: cell-based
# Method: as §1
# [9] = system: Propionibacterium acnes A21933; test: as above; assay type: cell-based; details: GAM agar
# Method: as §1
# [10] = system: Propionibacterium anaerobius A21905; test: as above; assay type: cell-based; details: GAM agar
# Method: as §1
# Proteus mirabilis A9554 = test: as above; assay type: cell-based; details: Nutrient agar
# Method: as §1
# Proteus vulgalis A9436 = test: as above; assay type: cell-based; details: Nutrient agar
# Method: as §1
# [11] = system: Pseudomonas aeruginosa A9930; test: as above; assay type: cell-based; details: Nutrient agar
# Method: as §1
# [12] = system: Staphylococcus aureus 209P; test: as above; assay type: cell-based; details: Nutrient agar
# Method: as §1
# [13] = system: Staphylococcus aureus smith; test: as above; assay type: cell-based; details: Nutrient agar
# Method: as §1
# [14] = system: Staphylococcus epidermidis D153; test: as above; assay type: cell-based; details: Nutrient agar
# Method: as §1
# [15] = system: Streptococcus faecalis A9612; test: as above; assay type: cell-based; details: Nutrient agar
# Method: as §1
# [16] = system: Streptococcus pyogenes A20201; test: as above; assay type: cell-based; details: Nutrient agar
# Method: as §1
# [17] = system: Trichophyton mentagrophytes D155; test: as above; assay type: cell-based; details: Sabouraud dextrose agar
# Method: as §1
# [18] = system: Clostridium perfringens A9635; assay type: cell-based; details: GAM agar
# [19] = system: B16-F10 (murine melanoma) cells; test: In vitro cytotoxicity, neutral red staining; assay type: cell-based; details: B16-F10; 72 hours
# Method: (§2) BU-3292T components A and B were tested for in vitro cytotoxicity against murine and human tumor cells and for in vivo antitumor activity in mice. Actinomycin D was used as a reference compound in both in vitro and in vivo experiments. B16-F10 (murine melanoma) and Moser (human colorectal carcinoma) cells were grown to the logarithmic phase in enriched Eagle minimum essential medium (MEM) supplemented with fetal calf serum (FCS, 10%) and kanamycin (60 mcg/ml), harvested and inoculated into wells of a 96-well microtiter plate with test materials at the concentrations of 3.0×10^4 and 6.0×10^4 cells/ml, respectively. They were incubated at 37° C. in humidified atmosphere of 5% CO2 and 95% air for 72 hours. The cytotoxic activity was determined colorimetrically at 540 nm after staining viable cells with neutral red. […] Inhibitory effects of BU-3292T component A on macromolecule (DNA, RNA and protein) synthesis were determined in vitro. Cultured L1210 murine leukemia cells (5×10^5 cells/ml) were incubated with test materials at 37° C. for 15 minutes and then further incubated for 60 minutes after the addition of labelled precursor, ^3 H-thymidine, ^14 C-uridine or ^3 H-leucine, into the cultured mixtures. After washing with chilled 5% trichloroacetic acid solution, the radioactivity incorporated into the acid-insoluble fraction of the tumor cells was determined in a liquid scintillation counter. […] In vivo antitumor activities of BU-3292T components A and B were tested in tumor-bearing female CDF mice. After the intraperitoneal implantation of diluted ascitic fluid with 1.0 ×10^6 lymphocytic leukemia P388 cells into the mice, test compounds were administered intraperitoneally once a day on days 1, 2 and 3 (QD×3).
# [20] = system: Moser (human colorectal carcinoma) cells; test: In vitro cytotoxicity, neutral red staining; assay type: cell-based; details: 72 hours
# Method: as §2
# [21] = system: DNA synthesis in L1210 leukemia cells; test: Inhibition of macromolecule synthesis, 3H-thymidine incorporation; assay type: cell-based, murine
# Method: BU-3292T components A and B were tested for in vitro cytotoxicity against murine and human tumor cells and for in vivo antitumor activity in mice. Actinomycin D was used as a reference compound in both in vitro and in vivo experiments. B16-F10 (murine melanoma) and Moser (human colorectal carcinoma) cells were grown to the logarithmic phase in enriched Eagle minimum essential medium (MEM) supplemented with fetal calf serum (FCS, 10%) and kanamycin (60 mcg/ml), harvested and inoculated into wells of a 96-well microtiter plate with test materials at the concentrations of 3.0×10^4 and 6.0×10^4 cells/ml, respectively. They were incubated at 37° C. in humidified atmosphere of 5% CO2 and 95% air for 72 hours. The cytotoxic activity was determined colorimetrically at 540 nm after staining viable cells with neutral red. […] Inhibitory effects of BU-3292T component A on macromolecule (DNA, RNA and protein) synthesis were determined in vitro. […] After washing with chilled 5% trichloroacetic acid solution, the radioactivity incorporated into the acid-insoluble fraction of the tumor cells was determined in a liquid scintillation counter. […]
# [22] = system: RNA synthesis in L1210 leukemia cells; test: Inhibition of macromolecule synthesis, 14C-uridine incorporation; assay type: cell-based, murine; details: L1210 leukemia cells; 14C-uridine
# Method: as §2
# [23] = system: Protein synthesis in L1210 leukemia cells; test: Inhibition of macromolecule synthesis, 3H-leucine incorporation; assay type: cell-based, murine; details: L1210 leukemia cells; 3H-leucine
# Method: as §2
# [24] = system: lymphocytic leukemia P388; test: Antitumor activity against P388 leukemia (ip); assay type: in vivo, mice; details: QD × 3, ip
# Method: as §2
# [25] = Body weight change in P388-bearing mice; details: QD × 3, ip
# Method: as §2
smiles,measurement,setting,value
"Cc1c2oc3c(C)ccc(C(=O)N[C@@H]4C(=O)N[C@H](C(C)C)C(=O)N5CCC[C@H]5C(=O)N(C)CC(=O)N(C)[C@@H](C(C)C)C(=O)O[C@@H]4C)c3nc-2c(C(=O)N[C@@H]2C(=O)N[C@H](C(C)C)C(=O)N3CCC[C@H]3C(=O)N(C)CC(=O)N(C)[C@@H](C(C)C)C(=O)O[C@@H]2C)c(N)c1=O [Actinomycin D, reference compound] (I: T[dV]P[Sar][NMeV] / II: T[dV]P[Sar][NMeV]; ester I:1-I:C, II:1-II:C; linker I:N-II:N via Actinocin(9to1))",MIC,[1],> 100 µg/mL
same,MIC,[2],0.2 µg/mL
same,MIC,[3],> 100 µg/mL
same,MIC,[4],> 100 µg/mL
same,MIC,[5],25 µg/mL
same,MIC,[6],> 100 µg/mL
same,MIC,Escherichia coli NIHJ,> 100 µg/mL
same,MIC,[7],> 100 µg/mL
same,MIC,[8],25 µg/mL
same,MIC,Micrococcus luteus 1001,0.2 µg/mL
same,MIC,"Mucor spinosus IFO 5317; Mucor spinosus IFO 5317, Sabouraud dextrose agar",> 100 µg/mL
same,MIC,Mucor spinosus IFO 5317; in vitro against Mucor spinosus IF05317,> 100 µg/mL
same,MIC,[9],6.3 µg/mL
same,MIC,[10],1.6 µg/mL
same,MIC,Proteus mirabilis A9554,> 100 µg/mL
same,MIC,Proteus vulgalis A9436,> 100 µg/mL
same,MIC,[11],100 µg/mL
same,MIC,[12],0.4 µg/mL
same,MIC,[13],0.4 µg/mL
same,MIC,[14],0.4 µg/mL
same,MIC,[15],0.1 µg/mL
same,MIC,[16],0.2 µg/mL
same,MIC,[17],> 100 µg/mL
same,MIC,[18],6.3 µg/mL
same,IC50,[19],0.002 µg/mL
same,IC50,[20],0.9 µg/mL
same,IC50 DNA,[21],8.1 µg/mL
same,IC50 RNA,[22],0.17 µg/mL
same,IC50 Protein,[23],> 100 µg/mL
same,MST (Median survival time),[24]; 0.001 mg/kg/day,11.0 days
same,T/C,[24]; 0.001 mg/kg/day,110%
same,MST (Median survival time),[24]; 0.003 mg/kg/day,13.5 days
same,T/C,[24]; 0.003 mg/kg/day,135%
same,MST (Median survival time),[24]; 0.01 mg/kg/day,14.0 days
same,T/C,[24]; 0.01 mg/kg/day,140%
same,MST (Median survival time),[24]; 0.03 mg/kg/day,15.0 days
same,T/C,[24]; 0.03 mg/kg/day,150%
same,MST (Median survival time),[24]; 0.1 mg/kg/day,16.0 days
same,T/C,[24]; 0.1 mg/kg/day,160%
same,MST (Median survival time),[24]; 0.3 mg/kg/day,7.0 days
same,T/C,[24]; 0.3 mg/kg/day,70%
same,Body weight change on day 4,[25]; 0.001 mg/kg/day,+1.3 g
same,Body weight change on day 4,[25]; 0.01 mg/kg/day,+1.3 g
same,Body weight change on day 4,[25]; 0.03 mg/kg/day,+0.5 g
same,Body weight change on day 4,[25]; 0.1 mg/kg/day,-2.0 g
same,Body weight change on day 4,[25]; 0.3 mg/kg/day,-3.5 g
